Like-named read-outs stand apart in the source and are kept apart here.

Assay [1] has as its target T1, USP28 (Homo sapiens, UniProt Q96RU2).
T1 construct: purchased R&D Systems
T1 sequence (Q96RU2 1-1077): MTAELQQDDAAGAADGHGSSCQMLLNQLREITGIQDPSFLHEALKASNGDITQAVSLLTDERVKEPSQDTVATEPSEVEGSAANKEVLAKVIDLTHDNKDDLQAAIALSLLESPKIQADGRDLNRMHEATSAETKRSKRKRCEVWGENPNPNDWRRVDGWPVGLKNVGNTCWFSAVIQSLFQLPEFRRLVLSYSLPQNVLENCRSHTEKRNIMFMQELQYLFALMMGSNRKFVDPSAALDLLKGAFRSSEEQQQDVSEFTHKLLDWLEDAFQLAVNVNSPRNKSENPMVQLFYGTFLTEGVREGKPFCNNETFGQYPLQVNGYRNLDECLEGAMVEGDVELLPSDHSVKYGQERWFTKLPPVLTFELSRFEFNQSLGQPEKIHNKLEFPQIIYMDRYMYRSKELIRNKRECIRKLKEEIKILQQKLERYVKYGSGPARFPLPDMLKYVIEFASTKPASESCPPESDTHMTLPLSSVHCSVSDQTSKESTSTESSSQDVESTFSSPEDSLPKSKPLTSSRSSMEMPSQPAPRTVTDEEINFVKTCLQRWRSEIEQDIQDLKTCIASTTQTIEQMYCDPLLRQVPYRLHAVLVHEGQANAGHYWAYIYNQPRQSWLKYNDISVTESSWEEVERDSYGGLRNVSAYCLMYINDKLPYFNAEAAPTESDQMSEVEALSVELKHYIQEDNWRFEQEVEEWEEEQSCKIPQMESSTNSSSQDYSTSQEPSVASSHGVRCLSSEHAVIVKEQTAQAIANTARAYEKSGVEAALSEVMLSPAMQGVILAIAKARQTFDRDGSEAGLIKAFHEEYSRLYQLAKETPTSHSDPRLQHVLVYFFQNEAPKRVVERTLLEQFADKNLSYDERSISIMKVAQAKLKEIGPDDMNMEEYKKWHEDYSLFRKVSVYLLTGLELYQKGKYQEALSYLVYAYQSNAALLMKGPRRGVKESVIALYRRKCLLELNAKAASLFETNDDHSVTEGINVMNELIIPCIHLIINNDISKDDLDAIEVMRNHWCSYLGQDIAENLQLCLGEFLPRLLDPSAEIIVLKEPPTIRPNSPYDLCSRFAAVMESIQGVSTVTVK
Description: USP28 activity measured using ubiquitin-rhodamine 110 method. The assay is classed as biochemical. As to conditions: purified USP28 4 nM, ubiquitin-rhodamine 110 125 nM, 30 min preincubation. A digest of the protocol: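 Purified USP28 (4 nM final) preincubated with compounds 30 min at room temperature in Tris-HCl pH 8.0 buffer with CaCl2, BME, Prionix and Triton X-100 (DMSO ≤0.5%). Ubiquitin-rhodamine 110 added to 125 nM; fluorescence (ex 485/em 535 nm) read immediately, inhibition versus DMSO control used to calculate IC50.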

Assay [2] has as its target T2, USP25 (Homo sapiens, UniProt Q9UHP3).
T2 construct: purchased R&D Systems
T2 sequence (Q9UHP3 1-1055): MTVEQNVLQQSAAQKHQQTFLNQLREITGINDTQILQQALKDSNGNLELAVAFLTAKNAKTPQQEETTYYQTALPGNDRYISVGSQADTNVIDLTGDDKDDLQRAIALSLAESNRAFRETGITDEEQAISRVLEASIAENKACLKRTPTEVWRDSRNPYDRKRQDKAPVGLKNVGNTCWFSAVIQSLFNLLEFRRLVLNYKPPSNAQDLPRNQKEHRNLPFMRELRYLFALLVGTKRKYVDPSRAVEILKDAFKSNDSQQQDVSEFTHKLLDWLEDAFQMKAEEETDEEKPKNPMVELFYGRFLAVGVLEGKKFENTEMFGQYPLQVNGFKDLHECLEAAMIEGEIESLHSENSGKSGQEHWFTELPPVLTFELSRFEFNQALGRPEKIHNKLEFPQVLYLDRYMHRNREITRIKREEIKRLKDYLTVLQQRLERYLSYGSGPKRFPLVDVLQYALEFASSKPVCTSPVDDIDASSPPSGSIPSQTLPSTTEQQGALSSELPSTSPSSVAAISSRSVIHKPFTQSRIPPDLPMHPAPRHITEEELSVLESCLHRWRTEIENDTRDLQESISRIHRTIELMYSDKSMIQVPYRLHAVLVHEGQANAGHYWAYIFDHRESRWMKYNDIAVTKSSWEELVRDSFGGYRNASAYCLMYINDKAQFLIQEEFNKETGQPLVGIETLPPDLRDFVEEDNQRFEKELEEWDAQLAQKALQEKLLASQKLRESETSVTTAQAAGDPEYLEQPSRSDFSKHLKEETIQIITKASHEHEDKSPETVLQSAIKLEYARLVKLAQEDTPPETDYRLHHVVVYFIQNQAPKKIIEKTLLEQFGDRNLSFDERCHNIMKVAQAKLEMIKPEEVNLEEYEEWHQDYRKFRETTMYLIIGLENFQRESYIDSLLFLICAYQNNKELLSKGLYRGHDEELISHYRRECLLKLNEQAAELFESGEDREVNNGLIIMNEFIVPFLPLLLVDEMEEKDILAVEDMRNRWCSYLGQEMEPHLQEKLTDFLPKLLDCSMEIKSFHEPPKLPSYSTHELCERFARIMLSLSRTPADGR
Description: USP25 activity measured using ubiquitin-rhodamine 110 method. As to conditions: purified USP25 15 nM, ubiquitin-rhodamine 110 125 nM, 30 min preincubation. The assay is classed as biochemical. A digest of the protocol:
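Compound preincubated 30 min at room temperature with USP25 (15 nM final) in 20 mM Tris-HCl pH 8.0, 2 mM CaCl2, 3 mM BME, 0.01% Prionix, 0.01% Triton X-100, ≤0.5% DMSO. Ubiquitin-rhodamine 110 (125 nM) then added; fluorescence (ex 485/em 535 nm) read immediately. IC50 from % inhibition across concentrations.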

[3] abbreviates: read-out: Inhibitory activity against USP28 (IC50).
Where [4] appears, read: read-out: Inhibitory activity against USP25 (IC50).
Where [5] appears, read: Inhibitory activity against USP28 (IC50).

For the compound `CNc1c(C(=O)NCCc2ccc(N3C[C@H]4CC[C@@H](C3)N4)cc2)sc2nccc(C(F)(F)F)c12` [Compound I-21], the values for the IC50 in assay [1] (setting [3]) and in assay [2] (setting [4]) were 0.1 to 1 µM and 1 to 5 µM, respectively.

Regarding `CNc1c(C(=O)NC[C@@H](F)c2ccc(N3C[C@H]4CC[C@@H](C3)N4)cc2)sc2nc(C)ccc12` [Compound I-69], the results for the concentration for half-maximal inhibition (IC50) in assay [1] (setting [5]) and in assay [2] (setting [4]) were < 0.1 µM and 0.1 to 1 µM, respectively.

Take `CCCc1ccc2c(NC)c(C(=O)NCCc3ccc(N4C[C@H]5CC[C@@H](C4)N5)cc3)sc2n1` [Compound I-11]: the values for the concentration for half-maximal inhibition (IC50) in assay [1] (setting [5]) and in assay [2] (setting [4]) were < 0.1 µM and > 10 µM, respectively.

In the case of `CCc1ccc2c(NC)c(C(=O)N[C@H]3COc4cc(N5CC6CCC(C5)N6)ccc4C3)sc2n1` [Compound I-91], the half-maximal inhibitory concentration (IC50) in assay [1] (setting [5]) and in assay [2] (Inhibitory activity against USP25 (IC50)) was < 0.1 µM throughout.

As to `CNc1c(C(=O)NCCc2ccc(N3CCNCC3)cc2)sc2nc(C)ccc12` [Compound I-2], the IC50 in assay [1] (setting [3]) and in assay [2] (setting [4]) was 0.1 to 1 µM in each case.

As a reminder, the IC50 is the point on the concentration scale where inhibition reaches its midpoint.
